Results: the supplement of paper PMC11208160

Test: recombinant barcode read abundance after kanamycin selection (control-corrected) (log10(CPM+1)); higher = more efficient recombination; sequences stand for … in AGTGCAGAGAAAATCGGCCAGTTTTCTCTGCCTGCAGTCCGCATGCCGT…AGATTTATGCAGCGGACTGCCTTTCTCCCAAAGTGATAAACCGGACAGTATCATGGACCGGTTTTCCCGGTAATCCGTATTTGCAAGGTTGGTTTCACT; site = the 11-nt target
Method in brief: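 Targets and IS621 bridge RNA target-binding loops were paired in oligos, each with a promoter, a barcode and the J23119-driven first 104 bridge RNA bases. A vector carrying the remaining 73 bp and a T7-inducible recombinase received these by Gibson cloning, and the pool was co-electroporated into E. coli with a donor plasmid. Duplicate plates contained chloramphenicol/ampicillin LB agar (control) or chloramphenicol/ampicillin/kanamycin with 0.1 mM IPTG. Recombination efficiency comes from averaged, control-corrected counts per million of recombinant-junction barcodes, reported as log10(CPM+1).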
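Also: IS621 recombinase and bridge RNA in Escherichia coli cells.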

| Sequence | recombinant barcode read abundance (log10) |
| --- | --- |
| CTCATATCTTGGGTTCTAACCTGTTGCCA (site CTAATATCTTG) | 0.0804 |
| CTCATATCTTGGGTTCTAACCTGTTGCCA (site CTCATATCTTG) | 0.162 |
| CTCCAGACTTGGGTTCTAACCTGTTGCAG (site CTCCAGACTCT) | 1.87 |
| CTCCAGACTTGGGTTCTAACCTGTTGCAG (site CTGCAGACTCG) | 0.0775 |
| CTCCAGGCTTGGGTTCTAACCTGTTGCGG (site CTCAAGGCTAC) | 0.427 |
| CTCCAGGCTTGGGTTCTAACCTGTTGCGG (site CTCCAGGCTCC) | 1.55 |
| CTCCGAACTTGGGTTCTAACCTGTTGCTT (site CTCCGAACTAA) | 0.144 |
| CTCCGAACTTGGGTTCTAACCTGTTGCTT (site CTCCGTACTAT) | 0.0428 |
| CTCCGACCTTGGGTTCTAACCTGTTGCTT (site CTCCGACCTAA) | 1.67 |
| CTCCGACCTTGGGTTCTAACCTGTTGCTT (site CTCCGCCCTAA) | 0.0228 |
| CTCCGACCTTGGGTTCTAACCTGTTGCTT (site CTCCGGCCTAA) | 0.327 |
| CTCCGACCTTGGGTTCTAACCTGTTGCTT (site CTCCGTCCTAA) | 0.103 |
| CTCCGAGCTTGGGTTCTAACCTGTTGCTA (site CTCCGAGCTTA) | 0.0161 |
| CTCCGAGCTTGGGTTCTAACCTGTTGCTA (site CTCCTAGCTAA) | 0.00807 |
| CTCGACACTTGGGTTCTAACCTGTTGCTG (site CTCGACACTCA) | 1.6 |
| CTCGACACTTGGGTTCTAACCTGTTGCTG (site CTCTACACTCA) | 0.191 |
| CTCGCTACTTGGGTTCTAACCTGTTGCTT (site CTCGATACTAA) | 0.0927 |
| CTCGCTACTTGGGTTCTAACCTGTTGCTT (site CTCGCTACTAA) | 0.264 |
| CTCGCTCCTTGGGTTCTAACCTGTTGCCA (site CTCGCTCCTTG) | 0.275 |
| CTCGCTCCTTGGGTTCTAACCTGTTGCCA (site GAAAAGTCTCA) | 0.113 |
| CTCGGAACTTGGGTTCTAACCTGTTGCAT (site CTCGGAACTAT) | 1.86 |
| CTCGGAACTTGGGTTCTAACCTGTTGCAT (site CTGGGAACTCT) | 0.00945 |

| Sequence | recombinant barcode read abundance (log10) |
| --- | --- |
| CTCGGGCCTTGGGTTCTAACCTGTTGCCT (site ATCGGGCCTAG) | 0.0932 |
| CTCGGGCCTTGGGTTCTAACCTGTTGCCT (site CTCGGGCCTAG) | 0.144 |
| CTCGGGCCTTGGGTTCTAACCTGTTGCCT (site GTCGGGCCTAG) | 0.0296 |
| CTCGGGCCTTGGGTTCTAACCTGTTGCCT (site TTCGGGCCTAG) | 0.0756 |
| CTCGTTACTTGGGTTCTAACCTGTTGCCT (site CTCGTAACTAG) | 0.0393 |
| CTCGTTACTTGGGTTCTAACCTGTTGCCT (site CTCGTCACTAG) | 0.112 |
| CTCGTTACTTGGGTTCTAACCTGTTGCCT (site CTCGTGACTAG) | 0.0469 |
| CTCGTTACTTGGGTTCTAACCTGTTGCCT (site CTCGTTACTAG) | 0.682 |
| CTCGTTGCTTGGGTTCTAACCTGTTGCCT (site ATCGTTGCTAG) | 0.0725 |
| CTCGTTGCTTGGGTTCTAACCTGTTGCCT (site CTCGTTGCTAG) | 0.519 |
| CTCGTTGCTTGGGTTCTAACCTGTTGCCT (site GTCGTTGCTAG) | 0.0989 |
| CTCGTTGCTTGGGTTCTAACCTGTTGCCT (site TTCGTTGCTAG) | 0.0838 |
| CTCTAGTCTTGGGTTCTAACCTGTTGCAT (site CTCTAGTCTAA) | 0.545 |
| CTCTAGTCTTGGGTTCTAACCTGTTGCAT (site CTCTAGTCTAC) | 0.263 |
| CTCTAGTCTTGGGTTCTAACCTGTTGCAT (site CTCTAGTCTAG) | 0.109 |
| CTCTAGTCTTGGGTTCTAACCTGTTGCAT (site CTCTAGTCTAT) | 1.8 |
| CTCTAGTCTTGGGTTCTAACCTGTTGCGT (site CTCTAGTCTAA) | 0.268 |
| CTCTAGTCTTGGGTTCTAACCTGTTGCGT (site CTCTAGTCTAC) | 2.54 |
| CTCTAGTCTTGGGTTCTAACCTGTTGCGT (site CTCTAGTCTAG) | 0.125 |
| CTCTAGTCTTGGGTTCTAACCTGTTGCGT (site CTCTAGTCTAT) | 1.79 |
| CTCTCAGCTTGGGTTCTAACCTGTTGCGA (site CTCTAAACTTC) | 0.15 |
| CTCTCAGCTTGGGTTCTAACCTGTTGCGA (site CTCTCAGCTTC) | 0.549 |

| Sequence | recombinant barcode read abundance (log10) |
| --- | --- |
| CTCTCCACTTGGGTTCTAACCTGTTGCCA (site CTCTCCACTTG) | 0.138 |
| CTCTCCACTTGGGTTCTAACCTGTTGCCA (site CTCTCGACTTG) | 0.0411 |
| CTCTCCGCTTGGGTTCTAACCTGTTGCCT (site CTCTCCGCTAG) | 0.77 |
| CTCTCCGCTTGGGTTCTAACCTGTTGCCT (site CTCTCCTCTAG) | 0.0931 |
| CTCTCGACTTGGGTTCTAACCTGTTGCCA (site CTCTCCACTTG) | 0.0478 |
| CTCTCGACTTGGGTTCTAACCTGTTGCCA (site CTCTCGACTTG) | 0.328 |
| CTCTCGTCTTGGGTTCTAACCTGTTGCAT (site CTCTCGTCTAA) | 0.0866 |
| CTCTCGTCTTGGGTTCTAACCTGTTGCAT (site CTCTCGTCTAC) | 0.08 |
| CTCTCGTCTTGGGTTCTAACCTGTTGCAT (site CTCTCGTCTAG) | 0.0361 |
| CTCTCGTCTTGGGTTCTAACCTGTTGCAT (site CTCTCGTCTAT) | 1.45 |
| CTCTCGTCTTGGGTTCTAACCTGTTGCGG (site CTCTCGTCTCC) | 1.16 |
| CTCTCGTCTTGGGTTCTAACCTGTTGCGG (site GGACGTGCTAG) | 0.127 |
| CTCTGGACTTGGGTTCTAACCTGTTGCTT (site CTCTGGACTAA) | 1.13 |
| CTCTGGACTTGGGTTCTAACCTGTTGCTT (site CTCTTGACTAA) | 0.0289 |
| CTCTTCGCTTGGGTTCTAACCTGTTGCCT (site CTCTTCACTCG) | 0.208 |
| CTCTTCGCTTGGGTTCTAACCTGTTGCCT (site CTCTTCGCTAG) | 0.314 |
| CTGAAGCCTTGGGTTCTAACCTGTTGCCT (site ATGAAGCCTAG) | 0.0394 |
| CTGAAGCCTTGGGTTCTAACCTGTTGCCT (site CTGAAGCCTAG) | 1.74 |
| CTGAAGCCTTGGGTTCTAACCTGTTGCCT (site GTGAAGCCTAG) | 0.386 |
| CTGAAGCCTTGGGTTCTAACCTGTTGCCT (site TTGAAGCCTAG) | 0.409 |
| CTGACTTCTTGGGTTCTAACCTGTTGCCT (site CAGACTTCTAG) | 0.0484 |
| CTGACTTCTTGGGTTCTAACCTGTTGCCT (site CCGACTTCTAG) | 0.0377 |

| Sequence | recombinant barcode read abundance (log10) |
| --- | --- |
| CTGACTTCTTGGGTTCTAACCTGTTGCCT (site CGGACTTCTAG) | 0.079 |
| CTGACTTCTTGGGTTCTAACCTGTTGCCT (site CTGACTTCTAG) | 0.121 |
| CTGAGTACTTGGGTTCTAACCTGTTGCCT (site ATCAGTACTAG) | 0.0653 |
| CTGAGTACTTGGGTTCTAACCTGTTGCCT (site CTGAGTACTAG) | 1.08 |
| CTGAGTCCTTGGGTTCTAACCTGTTGCCA (site CTGAGTCCTTG) | 0.424 |
| CTGAGTCCTTGGGTTCTAACCTGTTGCCA (site CTGAGTTCTTG) | 0.402 |
| CTGATCCCTTGGGTTCTAACCTGTTGCCT (site CAGATCCCTAG) | 0.629 |
| CTGATCCCTTGGGTTCTAACCTGTTGCCT (site CCGATCCCTAG) | 0.182 |
| CTGATCCCTTGGGTTCTAACCTGTTGCCT (site CGGATCCCTAG) | 0.255 |
| CTGATCCCTTGGGTTCTAACCTGTTGCCT (site CTGATCCCTAG) | 1.22 |
| CTGATGACTTGGGTTCTAACCTGTTGCCT (site CTGATAACTAG) | 0.177 |
| CTGATGACTTGGGTTCTAACCTGTTGCCT (site CTGATCACTAG) | 0.247 |
| CTGATGACTTGGGTTCTAACCTGTTGCCT (site CTGATGACTAG) | 0.999 |
| CTGATGACTTGGGTTCTAACCTGTTGCCT (site CTGATTACTAG) | 0.0174 |
| CTGATGTCTTGGGTTCTAACCTGTTGCCA (site CTGATGTCTTG) | 0.456 |
| CTGATGTCTTGGGTTCTAACCTGTTGCCA (site CTGCTGTCTTG) | 0.126 |
| CTGATGTCTTGGGTTCTAACCTGTTGCCA (site CTGGTGTCTTG) | 0.388 |
| CTGATGTCTTGGGTTCTAACCTGTTGCCA (site CTGTTGTCTTG) | 0.136 |
| CTGCACCCTTGGGTTCTAACCTGTTGCTA (site CTGCACCCTTA) | 1.61 |
| CTGCACCCTTGGGTTCTAACCTGTTGCTA (site GGCGGAGCTCG) | 0.378 |
